This is an account of results in US20240287076A1, “COMPOUNDS FOR TARGETING DEGRADATION OF BRUTON'S TYROSINE KINASE” (BIOGEN MA INC., priority 2021, published 2024).

This assay has as its target T1, BTK (Homo sapiens, UniProt Q06187).
T1 construct: The GM01501.3 cell line endogenously expresses BTK with a HiBiT fusion tag via CRISPR knock-in at its C-terminal region; endogenous in cells; host or cells: GM01501.3 (GM01501 cells engineered by CRISPR knock-in of HiBiT at the BTK locus)
As to the kind of experiment: BTK degradation assay using the HiBiT Method (Nano-Glo HiBiT Lytic Assay, GM01501.3 cells). The format is cell-based. The note with it: HiBiT Degradation on GM01501.3 BTK @ 6 hours. On the procedure: Selected compounds were tested in a BTK degradation assay using the HiBiT Method. Park Memorial Institute (RPM1) 1640 Medium with phenol red, L-Glutamine, Sodium Pyruvate, and fetal bovine serum (FBS) were purchased from Gibco (Grand Island, NY, USA). Nano-Glo® HiBiT Lytic Assay System was purchased from Promega (Madison, WI, USA). GM01501 cells were obtained from the NIGMS Human Genetic Cell Repository at the Coriell Institute for Medical Research. The GM01501.3 cell line endogenously expresses BTK with a HiBiT fusion tag via CRISPR knock-in at its C-terminal region. It was engineered by electroporation with the Neon Transfection System (Themo Fisher Scientific), according to manufacturer indications. Electroporation conditions: 1 pulse of 1,350 V for 30 ms for 0.5×10_6 cells. Cell culture flasks and 384-well microplates were acquired from VWR (Radnor, PA, USA). BTK degradation was evaluated by quantification of luminescent signal using Nano-Glo® HiBiT Lytic Assay kit. Test compounds were added to the 384-well plate from a top concentration of 10 μM with 11 points, half log titration in duplicates. GM01501.3 cells were added into 384-well plates at a cell density of 10,000 cells per well in a total volume of 30 μl. The plates were kept at 37° C. with 5% CO2 for 6 hours. Negative control wells included cells treated with DMSO only and positive control wells included only growing media, without Nano-Glo® HiBiT Lytic reagent. After a 6-hour incubation, Nano-Glo® HiBiT Lytic Assay reagent was added to the cells following manufacturer indications. Luminescence was acquired on EnVision™ Multilabel Reader (PerkinElmer, Santa Clara, CA, USA). […] “++++” represents a DC50 value of less than 100 nM. “+++” represents a DC50 value of 100 nM-500 nM. “++” represents a DC50 value of 500 nM-1000 nM. “+” represents a DC50 value of greater than 1000 nM.
(In general: With HiBiT, luminescence reflects the tagged protein that the partner subunit can reach.)

Bounds are passed on as bounds.

T1 sequence (Q06187 whole entry, the tested form may be a part): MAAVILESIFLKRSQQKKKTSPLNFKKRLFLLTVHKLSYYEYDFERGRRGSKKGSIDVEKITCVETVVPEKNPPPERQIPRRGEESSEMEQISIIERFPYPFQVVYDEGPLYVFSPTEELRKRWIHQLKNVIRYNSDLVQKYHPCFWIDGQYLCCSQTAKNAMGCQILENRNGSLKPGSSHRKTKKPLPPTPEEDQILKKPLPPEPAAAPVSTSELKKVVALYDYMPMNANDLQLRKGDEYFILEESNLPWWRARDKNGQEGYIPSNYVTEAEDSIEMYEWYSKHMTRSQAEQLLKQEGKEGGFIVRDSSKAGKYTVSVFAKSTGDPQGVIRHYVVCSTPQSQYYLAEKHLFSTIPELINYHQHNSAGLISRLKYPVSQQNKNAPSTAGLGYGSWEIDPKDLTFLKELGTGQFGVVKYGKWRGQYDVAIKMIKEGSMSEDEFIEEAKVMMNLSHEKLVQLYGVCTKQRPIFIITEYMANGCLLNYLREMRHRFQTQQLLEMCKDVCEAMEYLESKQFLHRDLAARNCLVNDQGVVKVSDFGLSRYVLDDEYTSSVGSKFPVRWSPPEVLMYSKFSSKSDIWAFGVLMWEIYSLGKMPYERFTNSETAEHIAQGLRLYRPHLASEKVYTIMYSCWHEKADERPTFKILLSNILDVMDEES

Regarding `Cc1cc(-c2ncnn3cc(CCN4CCC(c5ccc(OC6CCC(=O)NC6=O)cc5F)CC4)cc23)ccc1CNC(=O)c1noc(C(C)(C)C)n1` (stereo not drawn) [Example 254, 5-(tert-butyl)-N-(4-(6-(2-(4-(4-((2,6-dioxopiperidin-3-yl)oxy)-2-fluorophenyl)piperidin-1-yl)ethyl)pyrrolo[2,1-f][1,2,4]triazin-4-yl)-2-methylbenzyl)-1,2,4-oxadiazole-3-carboxamide], the DC50 was less than 100 nM.
Then `Cc1cc(-c2ncnn3cc(CC[C@@H](F)CN4CCC(c5ccc(C6CCC(=O)NC6=O)cc5)CC4)cc23)ccc1CNC(=O)c1noc(C(C)(C)C)n1` (single isomer, unassigned) [Example 286], with less than 100 nM; and `Cc1cc(-c2ncnn3cc(-c4ccc(CN5CCC(c6ccc(NC7CCC(=O)NC7=O)cc6)CC5)cc4)cc23)ccc1CNC(=O)N1CCC(OC(C)(C)C)C1` (stereo not drawn) [Example 98, 3-tert-butoxy-N-[[4-[6-[4-[[4-[4-[(2,6-dioxo-3-piperidyl)amino]phenyl]-1-piperidyl]methyl]phenyl]pyrrolo[2,1-f][1,2,4]triazin-4-yl]-2-methyl-phenyl]methyl]pyrrolidine-1-carboxamide], with less than 100 nM; and `Cc1cc(-c2ncnn3cc(-c4csc(CN5CCC(c6ccc(C7CCC(=O)NC7=O)cc6)CC5)n4)cc23)ccc1CNC(=O)c1noc(C(C)(C)C)n1` (stereo not drawn) [Example 208, 5-(tert-butyl)-N-(4-(6-(2-((4-(4-(2,6-dioxopiperidin-3-yl)phenyl)piperidin-1-yl)methyl)thiazol-4-4-yl)pyrrolo[2,1-f][1,2,4]triazin-4-yl)-2-methylbenzyl)-1,2,4-oxadiazole-3-carboxamide], with less than 100 nM.
`CC(C)(C)c1nc(C(=O)NCc2ccc(-c3ncnn4cc(-c5ccc(CN6CCC(c7ccc(C8CCC(=O)NC8=O)cc7)CC6)cc5)cc34)cc2)no1` (stereo not drawn) [Example 40, 5-tert-butyl-N-[[4-[6-[4-[[4-[4-(2,6-dioxo-3-piperidyl)phenyl]-1-piperidyl]methyl]phenyl]pyrrolo[2,1-f][1,2,4]triazin-4-yl]phenyl]methyl]-1,2,4-oxadiazole-3-carboxamide] displayed a DC50 of less than 100 nM.
Then `Cc1cc(-c2ncnn3cc(-c4ccc(CNC5CCc6cc(NC7CCC(=O)NC7=O)ccc6C5)cc4)cc23)ccc1CNC(=O)c1noc(C(C)(C)C)n1` (stereo not drawn) [Example 202, 5-(tert-butyl)-N-(4-(6-(4-(((6-((2,6-dioxopiperidin-3-yl)amino)-1,2,3,4-tetrahydronaphthalen-2-yl)amino)methyl)phenyl)pyrrolo[2,1-f][1,2,4]triazin-4-yl)-2-methylbenzyl)-1,2,4-oxadiazole-3-carboxamide], with less than 100 nM; and `Cc1cc(-c2ncnn3cc(-c4ccc(CN5CCC(c6ccc(NC7CCC(=O)NC7=O)cc6)CC5)cc4)cc23)ccc1CNC(=O)c1coc(C(C)(C)C)n1` (stereo not drawn) [Example 78, 2-tert-butyl-N-[[4-[6-[4-[[4-[4-[(2,6-dioxo-3-piperidyl)amino]phenyl]-1-piperidyl]methyl]phenyl]pyrrolo[2,1-f][1,2,4]triazin-4-yl]-2-methyl-phenyl]methyl]oxazole-4-carboxamide], with less than 100 nM; and `Cc1cc(-c2ncnn3cc(N4CCN(C(=O)C5CCN(C(=O)c6ccc(OC7CCC(=O)NC7=O)cc6)C5)CC4)cc23)ccc1CNC(=O)c1noc(C(C)(C)C)n1` (stereo not drawn) [Example 172, 5-(tert-butyl)-N-(4-(6-(4-(1-(4-((2,6-dioxopiperidin-3-yl)oxy)benzoyl)pyrrolidine-3-carbonyl)piperazin-1-yl)pyrrolo[2,1-f][1,2,4]triazin-4-yl)-2-methylbenzyl)-1,2,4-oxadiazole-3-carboxamide], with 100 to 500 nM.
With `Cc1cc(-c2ncnn3cc(C4CC4CN4CCC(c5ccc(NC6CCC(=O)NC6=O)cc5)CC4)cc23)ccc1CNC(=O)c1noc(C(C)(C)C)n1` (stereo not drawn) [Example 145, 5-tert-butyl-N-[[4-[6-[2-[[4-[4-[(2,6-dioxo-3-piperidyl)amino]phenyl]-1-piperidyl]methyl]cyclopropyl]pyrrolo[2,1-f][1,2,4]triazin-4-yl]-2-methyl-phenyl]methyl]-1,2,4-oxadiazole-3-carboxamide] the figure was less than 100 nM.
With `Cc1cc(-c2ncnn3cc(-c4ccc(CN5CCC(c6ccc(NC7CCC(=O)NC7=O)cc6)C(F)(F)C5)cc4)cc23)ccc1CNC(=O)c1noc(C(C)(C)C)n1` (stereo not drawn) [Example 240, 5-(tert-butyl)-N-(4-(6-(4-((4-(4-((2,6-dioxopiperidin-3-yl)amino)phenyl)-3,3-difluoropiperidin-1-yl)methyl)phenyl)pyrrolo[2,1-f] [1,2,4]triazin-4-yl)-2-methylbenzyl)-1,2,4-oxadiazole-3-carboxamide] the figure was less than 100 nM; with `Cc1cc(-c2ncnn3cc(CCCCN4CCC(c5ccc(C6CCC(=O)NC6=O)cc5)CC4)cc23)ccc1CNC(=O)c1noc(C(C)(C)C)n1` (stereo not drawn) [Example 128, 5-tert-butyl-N-[[4-[6-[4-[4-[4-(2,6-dioxo-3-piperidyl)phenyl]-1-piperidyl]butyl]pyrrolo[2,1-f][1,2,4]triazin-4-yl]-2-methyl-phenyl]methyl]-1,2,4-oxadiazole-3-carboxamide], less than 100 nM.
`Cc1cc(-c2ccnc3nn(-c4ccc(CN5CCC(c6ccc(NC7CCC(=O)NC7=O)cc6)CC5)cc4)cc23)ccc1CNC(=O)c1noc(C(C)(C)C)n1` (stereo not drawn) [Example 159, 5-tert-butyl-N-[[4-[2-[4-[[4-[4-[(2,6-dioxo-3-piperidyl)amino]phenyl]-1-piperidyl]methyl]phenyl]pyrazolo[3,4-b]pyridin-4-yl]-2-methyl-phenyl]methyl]-1,2,4-oxadiazole-3-carboxamide] had a 50% degradation concentration (DC50) of 100 to 500 nM.
Then `Cc1cc(-c2ncnn3cc(-c4cccc(CN5CCC(c6ccc(OC7CCC(=O)NC7=O)cc6)CC5)n4)cc23)ccc1CNC(=O)c1noc(C(C)(C)C)n1` (stereo not drawn) [Example 247, 5-(tert-butyl)-N-(4-(6-(6-((4-(4-((2,6-dioxopiperidin-3-yl)oxy)phenyl)piperidin-1-yl)methyl)pyridin-2-yl)pyrrolo[2,1-f][1,2,4]triazin-4-yl)-2-methylbenzyl)-1,2,4-oxadiazole-3-carboxamide], with less than 100 nM; and `Cc1cc(-c2ncnn3cc(N4CCN(C(=O)C5CCOC5CNC(=O)c5ccc(OC6CCC(=O)NC6=O)cc5)CC4)cc23)ccc1CNC(=O)c1noc(C(C)(C)C)n1` (stereo not drawn) [Example 187, 5-(tert-butyl)-N-(4-(6-(4-(2-((4-((2,6-dioxopiperidin-3-yl)oxy)benzamido)methyl)tetrahydrofuran-3-carbonyl)piperazin-1-yl)pyrrolo[2,1-f][1,2,4]triazin-4-yl)-2-methylbenzyl)-1,2,4-oxadiazole-3-carboxamide], with less than 100 nM; and `Cc1cc(-c2ncnn3cc(-c4ccc5c(c4)CN(CCc4ccc(NC6CCC(=O)NC6=O)cc4)C5)cc23)ccc1CNC(=O)c1noc(C(C)(C)C)n1` (stereo not drawn) [Example 55, 5-tert-butyl-N-[[4-[6-[2-[2-[4-[(2,6-dioxo-3-piperidyl)amino]phenyl]ethyl]isoindolin-5-yl]pyrrolo[2,1-f][1,2,4]triazin-4-yl]-2-methyl-phenyl]methyl]-1,2,4-oxadiazole-3-carboxamide], with less than 100 nM.
Then `Cc1cc(-c2ncnn3cc(N4CCN(C(=O)[C@@H]5CCC[C@H](NC(=O)c6ccc(OC7CCC(=O)NC7=O)cc6)C5)CC4)cc23)ccc1CNC(=O)c1noc(C(C)(C)C)n1` (stereo partly drawn) [Example 188, 5-(tert-butyl)-N-(4-(6-(4-((1R,3S)-3-(4-((2,6-dioxopiperidin-3-yl)oxy)benzamido)cyclohexane-1-carbonyl)piperazin-1-yl)pyrrolo[2,1-f][1,2,4]triazin-4-yl)-2-methylbenzyl)-1,2,4-oxadiazole-3-carboxamide], with less than 100 nM.
Then `Cc1cc(-c2ncnn3cc(-c4ccc(CN5CCC(c6ccc(NC7CCC(=O)NC7=O)cc6)CC5)cc4)cc23)ccc1CNC(=O)c1ccc(C(C)(C)C)cc1` (stereo not drawn) [Example 84, 4-tert-butyl-N-[[4-[6-[4-[[4-[4-[(2,6-dioxo-3-piperidyl)amino]phenyl]-1-piperidyl]methyl]phenyl]pyrrolo[2,1-f][1,2,4]triazin-4-yl]-2-methyl-phenyl]methyl]benzamide], with less than 100 nM; and `Cc1cc(-c2ncnn3cc(CCN4CCC(c5ccc6c(N7CCC(=O)NC7=O)noc6c5)CC4)cc23)ccc1CNC(=O)c1noc(C(C)(C)C)n1` [Example 272, 5-(tert-butyl)-N-(4-(6-(2-(4-(3-(2,4-dioxotetrahydropyrimidin-1(2H)-yl)benzo[d]isoxazol-6-yl)piperidin-1-yl)ethyl)pyrrolo[2,1-f][1,2,4]triazin-4-yl)-2-methylbenzyl)-1,2,4-oxadiazole-3-carboxamide], with greater than 1000 nM.

Broadly, the DC50 is the midpoint of the concentration-degradation curve.
